Consider 75 molecules from PubChem BioAssay AID1996.

In brackets after ≈: the same amount, converted by molar mass. A value given as a limit tells only on which side of the number the result lay.

For the data set the following is noted: buffer; pH 7.4; 200.0 µM.
A word on the solubility (kinetic): it is solubility judged after dilution from a stock solution rather than from solid. The molecule `Cn1c(SCC(=O)Nc2ccc(Cl)cc2)nc(O)cc1=O` had a kinetic solubility of over 48.9 µg/mL. Under `O=C(CSc1nccc(=O)[nH]1)c1cc2ccccc2o1` stands over 42.9 µg/mL. Molecule `COc1ccc(NC(=O)C2CCCN(c3ncccn3)C2)cc1` (stereo not given) showed a solubility (kinetic) of 14.5 µg/mL (≈ 46.4 µM). For `Cc1ccc(CNC(=S)N(C)C)cc1`, the kinetic solubility was over 31.2 µg/mL. In turn, `OCC1(CC2CCCCO2)CCN(Cc2cccc(O)c2)CC1` (stereo not given) yielded a solubility (kinetic) of 47.3 µg/mL (≈ 148 µM).

The molecule `O=C(COC(=O)c1ccc(Cl)cc1[N+](=O)[O-])NC(=O)c1ccccc1` returned a solubility (kinetic) of 4.8 µg/mL (≈ 13.2 µM).

On to `CCCC(=O)NCc1nc2ccccc2n1CC(=O)c1ccccc1`, for which the solubility (kinetic) is over 50.3 µg/mL. Under `Cc1ccc(SCCC(=O)Nc2cc(C)on2)cc1` stands 1.3 µg/mL (≈ 4.7 µM). Under `NC(=O)CSc1nc(C23CC4CC(CC(C4)C2)C3)nc2ccccc12` stands 1.2 µg/mL (≈ 3.39 µM); under `S=C(Nc1ccccc1)NC1CCN(Cc2ccccc2)CC1`, over 48.8 µg/mL. For `Cc1ccc(C(=O)CCC(=O)Nc2ncccc2C)cc1`, the solubility (kinetic) was over 42.4 µg/mL. In the case of `C/C(CC(=O)NCCN1CCOCC1)=N\NC(=O)c1ccncc1`, the solubility (kinetic) was over 50 µg/mL. `O=C(c1ccc(Sc2ccccc2)c([N+](=O)[O-])c1)N1CCOCC1` displayed a solubility (kinetic) of 49.9 µg/mL (≈ 145 µM). As to `Cn1nc(C(=O)NNC(=O)c2cccc(Cl)c2)ccc1=O`, the solubility (kinetic) was over 46 µg/mL.

With `CC(C)(C)NC(=O)COc1ccc(S(=O)(=O)N2CCCC2)cc1`, the kinetic solubility was over 51.1 µg/mL. For the molecule `O=C(Cc1ccc(F)cc1)NC1CCSC1=O` (stereo not given), the solubility (kinetic) is over 38 µg/mL.

`Cc1cc(=O)[nH]c(Nc2cccc(Br)c2)n1`: the solubility (kinetic) was over 42 µg/mL.

For `CC(C)COc1cccc(C(=O)N(C)CC(=O)Nc2cccc3ccccc23)c1`, the solubility (kinetic) came to 33.6 µg/mL (≈ 86 µM). `O/N=C/c1ccnc(SCc2ccc(Cl)cc2)n1` returned a solubility (kinetic) of 1.2 µg/mL (≈ 4.29 µM). This solubility kinetic lies about 28-fold lower than the previous one. As for `O=C(c1cc2cc(F)ccc2[nH]1)N1CCC(Cc2ccccc2)CC1`, the kinetic solubility stood at 1.3 µg/mL (≈ 3.86 µM). This solubility kinetic and that of the molecule before are within 1.5-fold of each other. `COc1ccc(NCC(=O)Nc2cccc(C(F)(F)F)c2)cc1S(=O)(=O)N1CCOCC1` gave a solubility (kinetic) of 3.4 µg/mL (≈ 7.18 µM).

In turn, `Cc1occc1C(=O)NCc1nc(-c2ccccc2)no1` showed a solubility (kinetic) of over 42.5 µg/mL. As for `OCC1(Cc2ccccc2)CCN(Cc2ccccn2)CC1`, the solubility (kinetic) was over 44.5 µg/mL. In turn, `CCc1ccccc1N(CC(=O)N1CCCCCC1)S(C)(=O)=O` showed a solubility (kinetic) of 43.5 µg/mL (≈ 129 µM). Turning to `Cc1ccc(S(=O)(=O)NCc2cccnc2)cc1C`, the kinetic solubility was over 41.5 µg/mL. In turn, `Cc1c(O)c(CN(C)C)cc2c1oc(=O)c1ccccc12` displayed a solubility (kinetic) of over 42.5 µg/mL.

The molecule `CS(=O)(=O)Nc1cc2c3c(c1)CCC(=O)N3CCC2` displayed a kinetic solubility of 39.9 µg/mL (≈ 142 µM).

`CN(Cc1ccccc1)C(=S)NC(=O)c1cccs1` yielded a kinetic solubility of over 43.6 µg/mL. `COc1ccc(N/C(=N/c2nc(C)cc(C)n2)NC(=O)c2ccccc2)cc1` yielded a solubility (kinetic) of 0.3 µg/mL (≈ 0.799 µM).

Take `CN(Cc1c(F)cccc1Cl)C(=O)c1ccc(NC(=O)CC2SC(N3CCCCC3)=NC2=O)cc1` (stereo not given): the kinetic solubility stood at 53.2 µg/mL (≈ 103 µM). With `CCc1nc2c(c(=O)[nH]1)C(CC)(CC)Cc1ccccc1-2`, the kinetic solubility turned out to be 0.7 µg/mL (≈ 2.48 µM). `CCOC(=O)C1CCCNC1=O` (stereo not given) yielded a solubility (kinetic) of over 25.7 µg/mL.

As for `COc1ccc(NC(=O)C2CCCN(S(C)(=O)=O)C2)cc1` (stereo not given), the kinetic solubility stood at 34.9 µg/mL (≈ 112 µM). `O=c1cc(COc2ccc(Cl)c(Cl)c2)nc2sccn12` yielded a solubility (kinetic) of 1.1 µg/mL (≈ 3.36 µM). The molecule `CCOc1ccc(NC(=O)COC(=O)C2CC2C)cc1` (stereo not given) showed a solubility (kinetic) of over 41.6 µg/mL. The molecule `O=c1c([N+](=O)[O-])cccn1Cc1ccccc1Cl` came in with a solubility (kinetic) of over 39.7 µg/mL.

As to `CCOc1ccc(S(=O)(=O)Nc2nccs2)cc1`, the kinetic solubility is over 42.7 µg/mL.

Molecule `Cc1ccc(NC(=O)NCCN2CCCCC2)cc1Cl` displayed a solubility (kinetic) of over 44.4 µg/mL. In the case of `NS(=O)(=O)c1ccc(S(=O)(=O)N2CCN(C3CCCC3)CC2)cc1`, the kinetic solubility was determined as 47.8 µg/mL (≈ 128 µM). As for `O=C(Nc1cccc(Cl)c1)Nc1ccc2nccnc2c1`, the kinetic solubility is 1.7 µg/mL (≈ 5.69 µM). This solubility kinetic is about 28-fold lower than that of the molecule before.

`Cc1noc(C)c1C(=O)OCC(=O)N1CCc2ccccc21` showed a kinetic solubility of 4.8 µg/mL (≈ 16 µM). Regarding `CC(NC(=O)COC(=O)CCC(=O)c1ccc(F)cc1)c1ccccc1` (stereo not given), the solubility (kinetic) is over 53.6 µg/mL. For `CCN(C(=O)COC(=O)c1ccc2c(c1)OCO2)c1ccccc1` the value was over 49.1 µg/mL; for `CCc1ccc(NS(=O)(=O)c2ccc3c(c2)oc(=O)n3C)cc1`, 2.1 µg/mL (≈ 6.32 µM); for `O=C(c1ccc(NS(=O)(=O)c2cccc(F)c2)cc1)N1CCCC1`, 51.2 µg/mL (≈ 147 µM). Turning to `O=[N+]([O-])c1ccccc1S(=O)(=O)N1CCN(c2ccccn2)CC1`, the solubility (kinetic) amounted to 4.1 µg/mL (≈ 11.8 µM). For `CC1NC(C)(C)Cc2c1ccc1ccccc21.Cl` (stereo not given) the value was 37.6 µg/mL; for `COc1ccc(S(=O)(=O)NCc2cccnc2)cc1OC`, over 46.3 µg/mL.

Consider `COc1ccc(NC(=O)COC(=O)C2CCN(S(=O)(=O)c3cccs3)CC2)cc1OC`, for which the solubility (kinetic) was determined as 47.1 µg/mL (≈ 101 µM). Regarding `Nc1nnc(SCC(=O)N2CCCCC2)s1`, the kinetic solubility is over 38.8 µg/mL. In turn, `COC(=O)c1ccc(NC(=S)N2CCCC2)cc1` returned a solubility (kinetic) of over 39.7 µg/mL.

`S=C(NCCc1ccccn1)Nc1ccccc1` had a kinetic solubility of 32.1 µg/mL (≈ 125 µM). Consider `CC(C)(C)OC(=O)N1CCCN(C(=O)Nc2cccc(Cl)c2)CC1`, for which the solubility (kinetic) amounted to 51.4 µg/mL (≈ 145 µM). For the molecule `CN(C)C(=S)c1ccc(N(C)C)cc1`, the kinetic solubility was determined as 28.2 µg/mL (≈ 135 µM). Consider `O=C(CCC(=O)Nc1cccc([N+](=O)[O-])c1)NCc1ccccc1`, for which the solubility (kinetic) came out at 48.5 µg/mL (≈ 148 µM). Under `Fc1ccc(CCNC(=S)Nc2ccc(F)c(Cl)c2)cc1` stands 23.9 µg/mL (≈ 73.1 µM). Molecule `COc1cccc(/C=C/C(=O)N2CCN(c3ccccn3)CC2)c1` returned a kinetic solubility of over 48.5 µg/mL. In turn, `O=c1[nH]c(Cc2cccc(C(F)(F)F)c2)nc2ccccc12` yielded a solubility (kinetic) of under 0.3 µg/mL. With `O=C(C1CCCCC1)N1CCN(c2nc(-c3ccc(F)cc3)cs2)CC1`, the solubility (kinetic) is 1.5 µg/mL (≈ 4.02 µM). With `O=C(C1CC1)N1CCN(c2ccc(O)cc2)CC1`, the kinetic solubility is over 36.9 µg/mL. Under `CC1(C(=O)Nc2ccc(S(=O)(=O)Nc3ncccn3)cc2)CCCC1` stands over 54.1 µg/mL; under `O=C(Nc1cccc(Cl)c1)Nc1csc([N+](=O)[O-])c1`, 0.5 µg/mL (≈ 1.68 µM); under `CSc1ccccc1NC(=O)CN1c2ccccc2CC1C` (stereo not given), 11.9 µg/mL (≈ 38.1 µM).

The molecule `O=C(CN1CCOCC1)Nc1ccc2c(c1)OC(F)(F)O2` returned a kinetic solubility of 41.2 µg/mL (≈ 137 µM). The molecule `COc1ccc(NC(=O)NCc2ccco2)cc1OC` had a kinetic solubility of 37.6 µg/mL (≈ 136 µM).

The molecule `CCCc1cc(=O)[nH]c(SCC(=O)Nc2ccc(C)cc2)n1` had a kinetic solubility of 3.1 µg/mL (≈ 9.77 µM).

`COc1ccccc1CSc1nc2c(c(=O)n(C)c(=O)n2C)n1C` had a kinetic solubility of 9.8 µg/mL (≈ 28.3 µM).

`Cc1nc(SCc2cccc(F)c2)c2oc3ccccc3c2n1` gave a kinetic solubility of under 0.3 µg/mL.

With `COc1ccc(NC(=O)CN(C)C(=O)C2(c3ccccc3)CCCC2)cc1`, the kinetic solubility was over 55 µg/mL. Under `NC(=O)c1ccsc1NC(=O)CCc1ccccc1` stands 37.4 µg/mL (≈ 136 µM); under `Cc1[nH]c2ccccc2c1C(=O)C(=O)N1CCOCC1`, over 40.8 µg/mL; under `O=C(CSCc1ccc(F)cc1)NCc1cccs1`, 40.2 µg/mL (≈ 136 µM). Take `CNC(=S)Nc1ccc2[nH]c(=O)[nH]c2c1`: the kinetic solubility was over 33.3 µg/mL. In turn, `O=C(Nc1ccccc1C(=O)NCCc1ccccc1)c1cnccn1` yielded a kinetic solubility of 3.2 µg/mL (≈ 9.24 µM). Regarding `CCC(=O)NCc1ccc2[nH]c(C)cc2c1`, the kinetic solubility amounted to 32.3 µg/mL (≈ 149 µM).
